Earlier results in patent publication US10966421B2, “Method and device for collecting and preserving cells for analysis” (priority 2002, dated 2021).

Legend:
[1] = in vivo
[2] = in vivo; remark: listed apart in the source
[3] = in vivo; remark: listed apart in the source

Q: Which “Dermal Toxicity” value [1] does the source give for `O=C(NCO)N(CO)C1(CO)C(=O)NC(=O)N1CO` (centres unmarked) [Diazolidinyl urea, diazolidinyl urea] here?
A: 2000 mg/kg

Q: What about the “Inhalation Toxicity” value [2] of the same molecule?
A: None

Q: And the LD50 [3]?
A: 2570 mg/kg

Q: What does the source list for `C=O` [Formaldehyde, formaldehyde, reference compound]?
A: Dermal Toxicity [1]: 270 mg/kg; Inhalation Toxicity [2]: 500 mg/kg
